Experimental data published in ChEMBL document CHEMBL5365500, “Development and Antibacterial Properties of 4-[4-(Anilinomethyl)-3-phenylpyrazol-1-yl]benzoic Acid Derivatives as Fatty Acid Biosynthesis Inhibitors” (J Med Chem, 2023).
≈ marks a conversion by molar mass, not a printed value.

Experiments:
Assay type in all cases: functional
Details in all cases: time 20-24 hrs
[1] = test system: Staphylococcus aureus; assay: Antimicrobial activity against Staphylococcus aureus ATCC 25923 assessed as inhibition of visible growth measured after 20 to 24 hrs incubation by CLSI method
[2] = test system: Staphylococcus aureus; assay: Antimicrobial activity against antibiotic-resistant Staphylococcus aureus ATCC BAA-2312 assessed as inhibition of visible growth measured after 20 to 24 hrs incubation by CLSI method
[3] = test system: Staphylococcus aureus; assay: Antimicrobial activity against antibiotic-resistant Staphylococcus aureus ATCC 33591 assessed as inhibition of visible growth measured after 20 to 24 hrs incubation by CLSI method
[4] = test system: Staphylococcus aureus; assay: Antimicrobial activity against antibiotic-resistant Staphylococcus aureus ATCC 33592 assessed as inhibition of visible growth measured after 20 to 24 hrs incubation by CLSI method
[5] = test system: Staphylococcus aureus; assay: Antimicrobial activity against antibiotic-resistant Staphylococcus aureus ATCC 700699 assessed as inhibition of visible growth measured after 20 to 24 hrs incubation by CLSI method
[6] = test system: Staphylococcus epidermidis; assay: Antimicrobial activity against antibiotic-resistant Staphylococcus epidermidis ATCC 700296 assessed as inhibition of visible growth measured after 20 to 24 hrs incubation by CLSI method
[7] = test system: Enterococcus faecalis; assay: Antimicrobial activity against antibiotic-susceptible Enterococcus faecalis ATCC 29212 assessed as inhibition of visible growth measured after 20 to 24 hrs incubation by CLSI method
[8] = test system: Enterococcus faecalis; assay: Antimicrobial activity against antibiotic-resistant Enterococcus faecalis ATCC 51299 assessed as inhibition of visible growth measured after 20 to 24 hrs incubation by CLSI method
[9] = test system: Enterococcus faecium; assay: Antimicrobial activity against antibiotic-resistant Enterococcus faecium ATCC 700221 assessed as inhibition of visible growth measured after 20 to 24 hrs incubation by CLSI method
[10] = test system: Bacillus subtilis; assay: Antimicrobial activity against antibiotic-resistant Bacillus subtilis ATCC 6623 assessed as inhibition of visible growth measured after 20 to 24 hrs incubation by CLSI method

Compound | MIC [1] [µg/mL] | MIC [2] [µg/mL] | MIC [3] [µg/mL] | MIC [4] [µg/mL] | MIC [5] [µg/mL] | MIC [6] [µg/mL] | MIC [7] [µg/mL] | MIC [8] [µg/mL] | MIC [9] [µg/mL] | MIC [10] [µg/mL]
O=C(O)c1ccc(-n2cc(CNc3ccc(Cl)c(C(F)(F)F)c3)c(-c3ccc(F)cc3)n2)cc1 | 2 (≈ 4.08 µM) | 2 (≈ 4.08 µM) | 1 (≈ 2.04 µM) | 2 (≈ 4.08 µM) | 1 (≈ 2.04 µM) | 4 (≈ 8.17 µM) | 8 (≈ 16.3 µM) | 8 (≈ 16.3 µM) | 2 (≈ 4.08 µM) | 1 (≈ 2.04 µM)
O=C(O)c1ccc(-n2cc(CNc3ccc(F)c(C(F)(F)F)c3)c(-c3ccc(F)cc3)n2)cc1 | 4 (≈ 8.45 µM) | 4 (≈ 8.45 µM) | 2 (≈ 4.22 µM) | 4 (≈ 8.45 µM) | 8 (≈ 16.9 µM) | 8 (≈ 16.9 µM) | 16 (≈ 33.8 µM) | 16 (≈ 33.8 µM) | 16 (≈ 33.8 µM) | 2 (≈ 4.22 µM)
O=C(O)c1ccc(-n2cc(CNc3ccc(Cl)cc3)c(-c3ccc(F)c(F)c3)n2)cc1 | > 32 | > 32 | > 32 | > 32 | > 32 | > 32 | > 32 | > 32 | > 32 | 4 (≈ 9.09 µM)
O=C(O)c1ccc(-n2cc(CNc3ccc(Br)cc3)c(-c3ccc(F)c(F)c3)n2)cc1 | > 32 | > 32 | > 32 | > 32 | > 32 | > 32 | > 32 | > 32 | > 32 | > 32
O=C(O)c1ccc(-n2cc(CNc3cc(Cl)c(F)c(Cl)c3)c(-c3ccc(F)c(F)c3)n2)cc1 | 1 (≈ 2.03 µM) | 0.5 (≈ 1.02 µM) | 0.25 (≈ 0.508 µM) | 1 (≈ 2.03 µM) | 1 (≈ 2.03 µM) | 2 (≈ 4.06 µM) | 4 (≈ 8.13 µM) | 4 (≈ 8.13 µM) | 1 (≈ 2.03 µM) | 0.5 (≈ 1.02 µM)
O=C(O)c1ccc(-n2cc(CNc3cc(Cl)ccc3Cl)c(-c3cccc(F)c3)n2)cc1 | 32 (≈ 70.1 µM) | 16 (≈ 35.1 µM) | 32 (≈ 70.1 µM) | 32 (≈ 70.1 µM) | 32 (≈ 70.1 µM) | 32 (≈ 70.1 µM) | 32 (≈ 70.1 µM) | 32 (≈ 70.1 µM) | 32 (≈ 70.1 µM) | 8 (≈ 17.5 µM)
O=C(O)c1ccc(-n2cc(CNc3ccccc3)c(-c3ccc(F)cc3)n2)cc1 | 32 (≈ 82.6 µM) | 32 (≈ 82.6 µM) | 32 (≈ 82.6 µM) | 32 (≈ 82.6 µM) | 32 (≈ 82.6 µM) | 32 (≈ 82.6 µM) | > 32 | > 32 | > 32 | 16 (≈ 41.3 µM)
O=C(O)c1ccc(-n2cc(CNc3cccc(OC(F)(F)F)c3)c(-c3ccc(F)cc3)n2)cc1 | 4 (≈ 8.49 µM) | 4 (≈ 8.49 µM) | 2 (≈ 4.24 µM) | 8 (≈ 17 µM) | 8 (≈ 17 µM) | 8 (≈ 17 µM) | 16 (≈ 33.9 µM) | 16 (≈ 33.9 µM) | 16 (≈ 33.9 µM) | 2 (≈ 4.24 µM)
O=C(O)c1ccc(-n2cc(CNc3ccc(Cl)cc3)c(-c3ccc(F)cc3)n2)cc1 | > 32 | 32 (≈ 75.9 µM) | 4 (≈ 9.48 µM) | > 32 | 8 (≈ 19 µM) | > 32 | > 32 | > 32 | > 32 | 4 (≈ 9.48 µM)
O=C(O)c1ccc(-n2cc(CNc3cc(Br)cc(C(F)(F)F)c3)c(-c3ccc(F)cc3)n2)cc1 | 2 (≈ 3.74 µM) | 1 (≈ 1.87 µM) | 0.5 (≈ 0.936 µM) | 1 (≈ 1.87 µM) | 1 (≈ 1.87 µM) | 4 (≈ 7.49 µM) | 4 (≈ 7.49 µM) | 2 (≈ 3.74 µM) | 2 (≈ 3.74 µM) | 1 (≈ 1.87 µM)
O=C(O)c1ccc(-n2cc(CNc3cc(F)c(F)c(F)c3)c(-c3ccc(F)cc3)n2)cc1 | 32 (≈ 72.5 µM) | > 32 | > 32 | > 32 | > 32 | > 32 | > 32 | > 32 | > 32 | 4 (≈ 9.06 µM)
O=C(O)c1ccc(-n2cc(CNc3ccc(C(F)(F)F)cc3)c(-c3ccc(F)c(F)c3)n2)cc1 | 2 (≈ 4.22 µM) | 2 (≈ 4.22 µM) | 1 (≈ 2.11 µM) | 2 (≈ 4.22 µM) | 4 (≈ 8.45 µM) | 4 (≈ 8.45 µM) | > 32 | > 32 | 8 (≈ 16.9 µM) | 1 (≈ 2.11 µM)
O=C(O)c1ccc(-n2cc(CNc3ccc(F)c(Cl)c3)c(-c3ccc(F)cc3)n2)cc1 | 8 (≈ 18.2 µM) | 4 (≈ 9.09 µM) | 2 (≈ 4.55 µM) | 8 (≈ 18.2 µM) | 8 (≈ 18.2 µM) | 32 (≈ 72.8 µM) | > 32 | > 32 | 16 (≈ 36.4 µM) | 2 (≈ 4.55 µM)
O=C(O)c1ccc(-n2cc(CNc3ccc(F)c(F)c3)c(-c3ccc(F)cc3)n2)cc1 | > 32 | > 32 | > 32 | > 32 | 16 (≈ 37.8 µM) | > 32 | > 32 | > 32 | > 32 | 16 (≈ 37.8 µM)
O=C(O)c1ccc(-n2cc(CNc3cccc(Br)c3)c(-c3ccc(F)cc3)n2)cc1 | 8 (≈ 17.2 µM) | 8 (≈ 17.2 µM) | 4 (≈ 8.58 µM) | 16 (≈ 34.3 µM) | 8 (≈ 17.2 µM) | 16 (≈ 34.3 µM) | 32 (≈ 68.6 µM) | 32 (≈ 68.6 µM) | 16 (≈ 34.3 µM) | 4 (≈ 8.58 µM)
O=C(O)c1ccc(-n2cc(CNc3ccc(F)cc3)c(-c3ccc(F)c(F)c3)n2)cc1 | > 32 | > 32 | > 32 | > 32 | > 32 | > 32 | > 32 | > 32 | > 32 | > 32
O=C(O)c1ccc(-n2cc(CNc3ccc(F)c(Cl)c3)c(-c3cccc(F)c3)n2)cc1 | 16 (≈ 36.4 µM) | 8 (≈ 18.2 µM) | 8 (≈ 18.2 µM) | 16 (≈ 36.4 µM) | 16 (≈ 36.4 µM) | 16 (≈ 36.4 µM) | 32 (≈ 72.8 µM) | 32 (≈ 72.8 µM) | 32 (≈ 72.8 µM) | 4 (≈ 9.09 µM)
Cc1ccc(NCc2cn(-c3ccc(C(=O)O)cc3)nc2-c2ccc(F)cc2)cc1Cl | 32 (≈ 73.4 µM) | 16 (≈ 36.7 µM) | 16 (≈ 36.7 µM) | 16 (≈ 36.7 µM) | 4 (≈ 9.18 µM) | 32 (≈ 73.4 µM) | > 32 | > 32 | 16 (≈ 36.7 µM) | 8 (≈ 18.4 µM)
O=C(O)c1ccc(-n2cc(CNc3cc(Cl)cc(Cl)c3)c(-c3ccc(F)c(F)c3)n2)cc1 | 1 (≈ 2.11 µM) | 1 (≈ 2.11 µM) | 0.5 (≈ 1.05 µM) | 2 (≈ 4.22 µM) | 2 (≈ 4.22 µM) | 2 (≈ 4.22 µM) | 4 (≈ 8.43 µM) | 8 (≈ 16.9 µM) | 2 (≈ 4.22 µM) | 0.5 (≈ 1.05 µM)
O=C(O)c1ccc(-n2cc(CNc3ccc(F)c(F)c3F)c(-c3ccc(F)c(F)c3)n2)cc1 | > 32 | 8 (≈ 17.4 µM) | 2 (≈ 4.35 µM) | > 32 | > 32 | > 32 | > 32 | > 32 | > 32 | 2 (≈ 4.35 µM)
